How the values were obtained:
[1] = Titration of rat gastric juice with antacid solutions; format: physicochemical; conditions: aqueous solutions: sodium bicarbonate 150 mM, NMG 150 mM, NMGP 20 mg/cc
Source text: Results are given in the appended Figure III.

[2] = Plasma concentration of various components after i.v. administration of NMG; format: in vivo; conditions: cat
[3] = format: in vivo, cats
Experimental: In vivo use of preparations of the invention as antiacidotic agents. […] The recovery of the pH to the normal value follows roughly an exponential course with a time constant of 1-3 minutes. […] Results are given in the appended Figure II.

- Plasma concentration Potassium ([2]; 1 min. after i.v. NMG 0.3 mmol/kg (before: 4.2)): 4200 µM
- Plasma concentration Urea ([2]; 1 min. after i.v. NMG 0.3 mmol/kg (before: 7)): 6900 µM
- Plasma concentration Chloride ([2]; 1 min. after i.v. NMG 0.3 mmol/kg (before: 113)): 112000 µM
- Plasma concentration Sodium ([2]; 1 min. after i.v. NMG 0.3 mmol/kg (before: 142)): 145000 µM
- Plasma concentration Potassium ([2]; 30 min. after i.v. NMG 0.3 mmol/kg (before: 4.2)): 4200 µM
- Plasma concentration Urea ([2]; 30 min. after i.v. NMG 0.3 mmol/kg (before: 7)): 6800 µM
- Plasma concentration Chloride ([2]; 30 min. after i.v. NMG 0.3 mmol/kg (before: 113)): 113000 µM
- Plasma concentration Sodium ([2]; 30 min. after i.v. NMG 0.3 mmol/kg (before: 142)): 144000 µM
- Plasma concentration Potassium ([2]; 120 min. after i.v. NMG 0.3 mmol/kg (before: 4.2)): 4200 µM
- Plasma concentration Urea ([2]; 120 min. after i.v. NMG 0.3 mmol/kg (before: 7)): 6600 µM
- Plasma concentration Chloride ([2]; 120 min. after i.v. NMG 0.3 mmol/kg (before: 113)): 116000 µM
- Plasma concentration Sodium ([2]; 120 min. after i.v. NMG 0.3 mmol/kg (before: 142)): 147000 µM
- effect on respiration ([3]; in vivo): no significant effect
- effects in the vein through which the solution was administered ([3]; in vivo, iv): No gross deleterious effects
Structure (SMILES): CNC[C@H](O)[C@@H](O)[C@H](O)[C@H](O)CO [NMG, 1-deoxy-1-(methylamino)-D-glucitol]
- antacid potency in titration of gastric juice [1]: more potent than sodium bicarbonate
- urine pH ([3]; artificially ventilated cats, 1cc/Kg of 300 mM): Parallel increase
- partial pressure of CO₂ (P CO2) ([3]; artificially ventilated cats, 1cc/Kg of 300 mM isotonic solution): clear decrease
- time constant of recovery of the pH to the normal value ([3]; artificially ventilated cats, 1cc/Kg of 300 mM, roughly exponential course): 1-3 minutes
- blood pH ([3]; artificially ventilated cats, rapid (about 15 sec.) administration of 1cc/Kg of 300 mM isotonic solution, immediate elevation from about 7.4): ~7.9
